# Measured values: patent US7034041B2 (priority 2000, dated 2006)
# Where a name gives a salt, the structure may show the parent alone.
# Target: (+)-MK801 binding site of the ionotropic NMDA receptor
# Design: species or system rat
structure (smiles),measurement,value
"Clc1ccccc1C1=CCN(C2(c3ccccc3)CCCCC2)CC1 [Example 11, 4-(2-chlorophenyl)-1-(1-phenylcyclohexyl)-1,2,3,6-tetrahydropyridine hydrochloride]",Ki,2.8 µM
"Cc1ccccc1C1=CCN(C2(c3ccccc3)CCCCC2)CC1 [Example 7, 4-(2-methylphenyl)-1-(1-phenylcyclohexyl)-1,2,3,6-tetrahydropyridine hydrochloride]",Ki,5.3 µM
